Source: US20230146675A1, “PYRIMIDO[5,4-d]PYRIMIDINE DERIVATIVES AS ENT INHIBITORS FOR THE TREATMENT OF CANCERS, AND COMBINATION THEREOF WITH ADENOSINE RECEPTOR ANTAGONISTS” (ITEOS BELGIUM SA, priority 2020, published 2023)
Like-named read-outs stand apart in the source and are kept apart here.

How the values were obtained:
[1] = molecular target: T1, Human phosphodiesterase-3B (Homo sapiens, UniProt Q13370); assay: PDE3B (h) assay; assay type: biochemical
T1 construct: host or cells: Sf9 cells
Experimental: The test compound (compound 72), reference compound or water (control) were added to a buffer containing 40 mM Tris/HCl (pH 7.8), 3 mM MgCl2, 1.4 mM DTT, 0.21% BSA, 200 mM NH4Cl, 2 μM cGMP and 0.05 μCi [3H]cGMP. Thereafter, the reaction was initiated by addition of the enzyme (final amount depending on the efficiency of the isolation) and the mixture was incubated for 60 min at 22° C. For basal control measurements, the enzyme was omitted from the reaction mixture. Following incubation SPA beads were added. After 20 min at 22° C. under shaking, the amount of [3H]5′GMP was quantified with a scintillation counter (Topcount, Packard). The results were expressed as a percent inhibition of the control enzyme activity. The standard inhibitory reference compound was zaprinast, which was tested in each experiment at several concentrations to obtain an inhibition curve from which its IC50 value was calculated. • Human phosphodiesterase-3B quantified by measuring the formation of 5′AMP from cAMP using a human recombinant enzyme expressed in Sf9 cells
The test compound (compound 72), reference compound or water (control) were added to a buffer containing 40 mM Tris/HCl (pH 7.4) and 8 mM MgCl2, 450 nM cAMP and 0.25 μCi [3H]cAMP. […] After 30 min at 22° C. under shaking, the amount of [3H]5′AMP was quantified with a scintillation counter (MicroBeta, Perkin Elmer). […]

Phosphodiesterase-6 = molecular target: T2, Phosphodiesterase-6 (Bos taurus, UniProt P11541+P23439); assay: PDE6 (non-selective) assay; assay type: biochemical, bovine
T2 construct: using an enzyme isolated from bovine retinas at Eurofins-Cerep; tissue Eurofins-Cerep; host or cells: bovine retinas
T2 sequence (P11541 2-856 limits assumed): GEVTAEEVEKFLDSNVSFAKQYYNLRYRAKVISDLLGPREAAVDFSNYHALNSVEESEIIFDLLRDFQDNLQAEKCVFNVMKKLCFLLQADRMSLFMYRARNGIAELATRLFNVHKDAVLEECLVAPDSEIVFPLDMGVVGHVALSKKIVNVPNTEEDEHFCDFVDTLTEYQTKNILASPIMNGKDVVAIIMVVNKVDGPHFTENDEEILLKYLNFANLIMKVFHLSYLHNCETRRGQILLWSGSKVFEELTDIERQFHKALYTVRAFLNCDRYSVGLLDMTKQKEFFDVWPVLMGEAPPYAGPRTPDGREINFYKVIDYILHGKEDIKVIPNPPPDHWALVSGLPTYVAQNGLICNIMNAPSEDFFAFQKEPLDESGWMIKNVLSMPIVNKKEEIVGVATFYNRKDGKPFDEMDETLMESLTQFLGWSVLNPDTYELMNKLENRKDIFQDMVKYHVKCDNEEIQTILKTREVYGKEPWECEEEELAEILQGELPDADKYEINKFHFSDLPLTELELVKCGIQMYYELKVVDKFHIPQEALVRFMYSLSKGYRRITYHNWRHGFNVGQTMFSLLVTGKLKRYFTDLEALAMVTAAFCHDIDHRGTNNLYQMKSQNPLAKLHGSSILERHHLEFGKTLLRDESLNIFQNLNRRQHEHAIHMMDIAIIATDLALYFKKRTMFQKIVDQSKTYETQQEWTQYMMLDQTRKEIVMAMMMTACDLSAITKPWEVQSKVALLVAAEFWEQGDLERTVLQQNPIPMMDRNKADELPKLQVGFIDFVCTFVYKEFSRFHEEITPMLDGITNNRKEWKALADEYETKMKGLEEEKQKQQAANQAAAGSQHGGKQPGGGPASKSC
T2 sequence (P23439 2-850 limits assumed): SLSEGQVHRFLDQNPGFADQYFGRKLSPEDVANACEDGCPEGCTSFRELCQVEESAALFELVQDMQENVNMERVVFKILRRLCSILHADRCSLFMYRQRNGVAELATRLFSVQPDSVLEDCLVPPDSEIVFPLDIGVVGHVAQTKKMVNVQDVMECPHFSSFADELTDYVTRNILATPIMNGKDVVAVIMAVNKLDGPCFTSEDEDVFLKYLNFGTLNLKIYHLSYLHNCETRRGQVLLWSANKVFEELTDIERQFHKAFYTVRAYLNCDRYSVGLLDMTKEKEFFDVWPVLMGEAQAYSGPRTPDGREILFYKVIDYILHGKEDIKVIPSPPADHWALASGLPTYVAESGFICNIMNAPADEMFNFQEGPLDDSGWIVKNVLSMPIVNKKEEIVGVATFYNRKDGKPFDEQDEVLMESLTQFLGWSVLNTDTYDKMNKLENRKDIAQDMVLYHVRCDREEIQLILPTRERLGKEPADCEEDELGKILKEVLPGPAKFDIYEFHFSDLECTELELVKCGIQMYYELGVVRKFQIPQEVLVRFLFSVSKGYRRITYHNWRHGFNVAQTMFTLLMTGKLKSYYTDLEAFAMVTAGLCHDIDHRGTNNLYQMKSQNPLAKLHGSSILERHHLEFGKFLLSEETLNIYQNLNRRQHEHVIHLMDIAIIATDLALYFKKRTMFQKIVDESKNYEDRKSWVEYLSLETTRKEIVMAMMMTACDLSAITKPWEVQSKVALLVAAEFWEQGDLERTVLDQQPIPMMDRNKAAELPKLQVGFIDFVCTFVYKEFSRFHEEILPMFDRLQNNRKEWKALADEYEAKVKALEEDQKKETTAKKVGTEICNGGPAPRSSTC
Experimental: The test compound (compound 72), reference compound or water (control) were added to a buffer containing 40 mM Tris/HCl (pH 7.4) and 8 mM MgCl2, 450 nM cAMP and 0.0125 μCi [3H]cAMP. Thereafter, the reaction was initiated by addition of the enzyme (about 1.5 U) and the mixture was incubated for 20 min at 22° C. For basal control measurements, the enzyme was omitted from the reaction mixture. Following incubation SPA beads were added. After 30 min at 22° C. under shaking, the amount of [3H]5′AMP was quantified with a scintillation counter (Topcount, Packard). The results were expressed as a percent inhibition of the control enzyme activity. The standard inhibitory reference compound was Ro 20-1724, which was tested in each experiment at several concentrations to obtain an inhibition curve from which its IC50 value was calculated. • Phosphodiesterase-6 quantified by measuring the formation of 5′GMP from cGMP using an enzyme isolated from bovine retinas at Eurofins-Cerep
The test compound (compound 72), reference compound or water (control) were added to a buffer containing 40 mM Tris/HCl (pH 7.8), 3 mM MgCl2, 1.4 mM DTT, 0.21% BSA, 200 mM NH4Cl, 2 μM cGMP and 0.05 μCi [3H]cGMP. […] After 20 min at 22° C. under shaking, the amount of [3H]5′GMP was quantified with a scintillation counter (Topcount, Packard). The results were expressed as a percent inhibition of the control enzyme activity. […]

T1 sequence (Q13370 whole entry): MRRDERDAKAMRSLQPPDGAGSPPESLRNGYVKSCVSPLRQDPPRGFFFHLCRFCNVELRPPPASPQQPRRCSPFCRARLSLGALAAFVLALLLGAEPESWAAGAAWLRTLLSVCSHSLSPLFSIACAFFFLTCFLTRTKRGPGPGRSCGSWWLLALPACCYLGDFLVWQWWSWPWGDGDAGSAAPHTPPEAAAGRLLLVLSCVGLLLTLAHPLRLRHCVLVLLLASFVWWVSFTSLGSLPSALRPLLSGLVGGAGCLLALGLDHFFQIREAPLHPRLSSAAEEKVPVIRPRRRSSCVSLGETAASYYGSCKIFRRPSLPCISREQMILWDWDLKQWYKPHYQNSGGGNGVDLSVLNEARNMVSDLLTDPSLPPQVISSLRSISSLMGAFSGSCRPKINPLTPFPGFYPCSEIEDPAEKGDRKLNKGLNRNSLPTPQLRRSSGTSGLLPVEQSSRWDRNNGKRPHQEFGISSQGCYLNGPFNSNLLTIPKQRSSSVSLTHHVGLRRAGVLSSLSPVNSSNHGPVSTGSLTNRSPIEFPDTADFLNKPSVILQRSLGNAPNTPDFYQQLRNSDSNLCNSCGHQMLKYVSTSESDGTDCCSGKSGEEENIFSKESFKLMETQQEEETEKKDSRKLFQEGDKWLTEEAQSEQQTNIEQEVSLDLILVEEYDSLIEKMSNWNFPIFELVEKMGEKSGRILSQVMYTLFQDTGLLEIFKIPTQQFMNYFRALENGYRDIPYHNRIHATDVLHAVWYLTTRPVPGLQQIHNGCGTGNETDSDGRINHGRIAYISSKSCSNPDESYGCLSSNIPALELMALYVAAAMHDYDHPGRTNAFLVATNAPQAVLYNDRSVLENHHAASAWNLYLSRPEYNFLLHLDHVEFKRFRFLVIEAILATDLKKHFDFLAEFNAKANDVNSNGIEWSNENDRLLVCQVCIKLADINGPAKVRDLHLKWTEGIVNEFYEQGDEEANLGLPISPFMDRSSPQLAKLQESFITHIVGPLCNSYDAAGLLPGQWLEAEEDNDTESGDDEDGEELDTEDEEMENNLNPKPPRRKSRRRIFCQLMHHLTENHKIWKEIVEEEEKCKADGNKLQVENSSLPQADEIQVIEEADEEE

COCCN(CCOC)c1nc(N2CCN(C)C(=O)C2)c2nc(N(CCOC)CCOC)nc(N3CCC(OC)CC3)c2n1 [Compound 72, 4-(2,6-bis(bis(2-methoxyethyl)amino)-8-(4-methoxypiperidin-1-yl)pyrimido[5,4-d]pyrimidin-4-yl)-1-methylpiperazin-2-one]
IC50 [1]: > 10 µM
IC50 (Phosphodiesterase-6; read-out: PDE6 (non-selective) IC50): 1 to 10 µM
IC50 (Phosphodiesterase-6; read-out: PDE6 IC50): 3.23 µM
